Laboratory results published in patent US7288653B2, “Inhibitors of proton-gated cation channels and their use in the treatment of ischaemic disorders” (PainCeptor Pharma Corporation, priority 1999, dated 2007).

Biological target: T1, naturally occurring proton-gated cation channel in a HEK293 cell (Homo sapiens, UniProt P78348)
T1 construct: a naturally occurring proton-gated cation channel in a HEK293 cell; endogenous in cells; host or cells: HEK293
T1 sequence (P78348 1-528): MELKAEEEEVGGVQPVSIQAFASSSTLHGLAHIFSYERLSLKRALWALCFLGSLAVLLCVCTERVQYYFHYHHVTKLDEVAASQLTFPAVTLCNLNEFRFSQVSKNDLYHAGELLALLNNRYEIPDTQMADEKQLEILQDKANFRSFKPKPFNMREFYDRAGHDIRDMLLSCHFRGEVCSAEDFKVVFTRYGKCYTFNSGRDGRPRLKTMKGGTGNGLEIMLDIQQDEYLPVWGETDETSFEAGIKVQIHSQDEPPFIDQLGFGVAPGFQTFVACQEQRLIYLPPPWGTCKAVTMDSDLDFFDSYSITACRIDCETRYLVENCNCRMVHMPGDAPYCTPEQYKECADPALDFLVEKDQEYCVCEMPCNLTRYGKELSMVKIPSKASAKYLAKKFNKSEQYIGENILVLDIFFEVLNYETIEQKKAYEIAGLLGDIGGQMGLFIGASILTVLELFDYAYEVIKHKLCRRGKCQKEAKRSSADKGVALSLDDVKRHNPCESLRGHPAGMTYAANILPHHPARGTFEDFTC
Test: Patch clamp of whole cell currents elicited by a drop in extracellular pH in HEK293 cells
Assay type: cell-based
Conditions: extracellular pH drop from 7.4 to 6.5, group IC50 below 100 nM, read-out: IC50, inhibition of the proton activated response
Procedure: In this example the current flux induced by protons over the membrane of a naturally occurring proton-gated cation channel in a HEK293 cell was determined using patch clamp techniques.
Using this technique, the effects of the compounds for use according to the invention was investigated on whole cell currents elicited by a drop in extracellular pH from 7.4 to 6.5.

| IC50 | SMILES |
| --- | --- |
| < 100 nM | CN1CCc2c(-c3ccc(Cl)cc3)cc3c(c2C1)NC(=O)C3=NO [5-(4-chlorophenyl)-8-methyl-6-7-8-9-tetrahydro-1-H-pyrrolo-[3,2-h]-isoquinoline-2,3-dione-3-oxim] |
| < 100 nM | CN1Cc2c(-c3cccc4ccccc34)cc3c(c2C1)NC(=O)C3=NO [7-methyl-5-(1-naphthyl)-1-6-7-8-tetrahydrobenzo-[2,1-b:3,4-c]-dipyrrole-2,3-dione-3-oxime] |
| < 100 nM | CN1Cc2c(-c3ccccc3)cc3c(c2C1)NC(=O)C3=NO [7-methyl-5-phenyl-1-6-7-8-tetrahydrobenzo-[2,1-b:3,4-c]-dipyrrole-2,3-dione-3-oxime] |
| < 100 nM | CCN1CCc2c(-c3ccccc3)cc3c(c2C1)NC(=O)/C3=N/O [8-ethyl-5-phenyl-6-7-8-9-tetrahydro-1H-pyrrolo-[3,2-h]-isoquinoline-2,3-dione-3-oxim] |
| < 100 nM | CN1CCc2c(-c3ccc(F)cc3)cc3c(c2C1)NC(=O)C3=NO [8-methyl-5-(4-fluorophenyl)-6,7,8,9-tetrahydro-1H-pyrrolo-[3,2-h]-isoquinoline-2,3-dione-3-oxim] |
| < 100 nM | CC(=O)ON=C1C(=O)Nc2c1cc(-c1ccccc1)c1c2CN(C)CC1 [8-methyl-5-phenyl-6,7,8,9-tetrahydro-1H-pyrrolo-[3,2-h]-isoquinoline-2,3-dione-3-acetyloxim] |
| < 100 nM | CN1CCc2c(-c3ccccc3)cc3c(c2C1)NC(=O)C3=NO [8-methyl-5-phenyl-6-7-8-9-tetrahydro-1H-pyrrolo-[3,2-h]-isoquinoline-2,3-dione-3-oxim] |

Same assay, conditions: extracellular pH drop from 7.4 to 6.5, group IC50 below 1 μM (of from 100 nM to 1 μM), read-out: IC50, inhibition of the proton activated response

| IC50 | SMILES |
| --- | --- |
| < 1000 nM | CN1CCc2c(-c3ccc4ccccc4c3)cc3c(c2C1)NC(=O)C3=NO [5-(2-naphthyl)-8-methyl-6-7-8-9-tetrahydro-1-H-pyrrolo-[3.2-h]-isoquinoline-2,3-dione-3-oxim] |
| < 1000 nM | O=C1Nc2c(cc(-c3ccccc3)c3c2CNCC3)C1=NO [5-phenyl-6-7-8-9-tetrahydro-1H-pyrrolo-[3,2-h]-isoquinoline-2,3-dione-3-oxim] |
| < 1000 nM | CCN1Cc2c(-c3ccccc3)cc3c(c2C1)NC(=O)C3=NO [7-ethyl-5-phenyl-1-6-7-8-tetrahydrobenzo-[2,1-b:3,4-c]-dipyrrole-2,3-dione-3-oxime] |
| < 1000 nM | CN1Cc2c(-c3ccccc3)cc3c(c2C1)NC(=O)C3=NO [7-methyl-5-phenyl-1-6-7-8-tetrahydrobenzo-[2,1-b:3,4-c]-dipyrrole-2,3-dione-3-oxime] |
| < 1000 nM | O=C1Nc2c(cc(-c3ccccc3)c3c2CN(Cc2ccccc2)CC3)C1=NO [8-benzyl-5-phenyl-6-7-8-9-tetrahydro-1H-pyrrolo-[3,2-h]-isoquinoline-2,3-dione-3-oxim] |
| < 1000 nM | O=C1Nc2c(cc(-c3ccccc3)c3c2CN(CC2CC2)CC3)C1=NO [8-cyclopropylmethyl-5-phenyl-6,7,8,9-tetrahydro-1H-pyrrolo-[3,2-h]-isoquinoline-2,3-dione-3-oxime] |
| < 1000 nM | CCN1CCc2c(-c3ccccc3)cc3c(c2C1)N(C)C(=O)C3=NO [8-ethyl-5-phenyl-6-7-8-9-tetrahydro-1-methyl-pyrrolo-[3,2-h]-isoquinoline-2,3-dione-3-oxim] |
| < 1000 nM | COc1ccccc1-c1cc2c(c3c1CCN(C)C3)NC(=O)/C2=N\O [8-methyl-5-(2-methoxyphenyl)-6-7-8-9-tetrahydro-1-H-pyrrolo-[3.2-h]-isoquinoline-2,3-dione-3-oxim] |
| < 1000 nM | COc1cccc(-c2cc3c(c4c2CCN(C)C4)NC(=O)/C3=N\O)c1 [8-methyl-5-(3-methoxyphenyl)-6-7-8-9-tetrahydro-1-H-pyrrolo-[3.2-h]-isoquinoline-2,3-dione-3-oxim] |
| < 1000 nM | CN1CCc2c(-c3ccc(S(=O)(=O)N(C)C)cc3)cc3c(c2C1)NC(=O)C3=NO [8-methyl-5-(4-(N,N-dimethylsulfamoyl)-phenyl)-6,7,8,9-tetrahydro-1H-pyrrolo-[3,2-h]-isoquinoline-2,3-dione-3-oxime] |
| < 1000 nM | CN1CCc2c(-c3ccccc3)cc3c(c2C1)NC(=O)C3=NOC(=O)C(C)(C)C [8-methyl-5-phenyl-6-7-8-9-tetrahydro-1-H-pyrrolo-[3.2-h]-isoquinoline-2,3-dione-3-O-2,2-dimethylpropanoyl-oxim] |
| < 1000 nM | CON=C1C(=O)Nc2c1cc(-c1ccccc1)c1c2CN(C)CC1 [8-methyl-5-phenyl-6-7-8-9-tetrahydro-1H-pyrrolo-[3,2-h]-isoquinoline-2,3-dione-3-methyloxim] |

Same assay, conditions: extracellular pH drop from 7.4 to 6.5, group IC50 below 10 μM (of from 1 μM to 10 μM), read-out: IC50, inhibition of the proton activated response

| IC50 | SMILES |
| --- | --- |
| 1000 to 10000 nM | O=C1Nc2c(cc(-c3ccc(Cl)cc3)c3c2CCCC3)C1=NO [5-(4-chlorophenyl)-6-7-8-9-tetrahydro-1-H-pyrrolo-[3.2-h]-naphthalene-2,3-dione-3-oxim] |
| 1000 to 10000 nM | O=C1Nc2c(cc(-c3ccccc3)c3c2CCCC3)/C1=N/O [5-phenyl-6-7-8-9-tetrahydro-1-H-pyrrolo-[3.2-h]-naphthalene-2,3-dione-3-oxim] |
| 1000 to 10000 nM | C#CCN1CCc2c(-c3ccccc3)cc3c(c2C1)NC(=O)C3=NO [8-(2-propynyl)-5-phenyl-6,7,8,9-tetrahydro-1H-pyrrolo-[3,2-h]-isoquinoline-2,3-dione-3-oxime] |
| 1000 to 10000 nM | CCN1CCc2c(-c3ccccc3)cc3c(c2C1)N(C)C(=O)C3=NOC [8-ethyl-5-phenyl-6-7-8-9-tetrahydro-1-methyl-pyrrolo-[3,2-h]-isoquinoline-2,3-dione-3-O-methyloxim] |
| 1000 to 10000 nM | COC(=O)CN1CCc2c(-c3ccccc3)cc3c(c2C1)NC(=O)C3=NO [8-methoxycarbonylmethyl-5-phenyl-6,7,8,9-tetrahydro-1H-pyrrolo-[3,2-h]-isoquinoline-2,3-dione-3-oxime] |
| 1000 to 10000 nM | COc1ccc(-c2cc3c(c4c2CCN(C)C4)NC(=O)C3=NO)cc1 [8-methyl-5-(4-methoxyphenyl)-6-7-8-9-tetrahydro-1-H-pyrrolo-[3.2-h]-isoquinoline-2,3-dione-3-oxim] |
| 1000 to 10000 nM | CN1CCc2c(-c3ccc([N+](=O)[O-])cc3)cc3c(c2C1)NC(=O)/C3=N\O [8-methyl-5-(4-nitrophenyl)-6,7,8,9-tetrahydro-1H-pyrrolo-[3,2-h]-isoquinoline-2,3-dione-3-oxim] |

Tested on: not given
Test: not given
Conditions: not given

| melting point | SMILES |
| --- | --- |
| 170 °C (dec.) | C#CCN1CCc2c(-c3ccccc3)cc3c(c2C1)NC(=O)C3=NO [8-(2-propynyl)-5-phenyl-6,7,8,9-tetrahydro-1H-pyrrolo-[3,2-h]-isoquinoline-2,3-dione-3-oxime] |
| 160 °C (dec.) | O=C1Nc2c(cc(-c3ccccc3)c3c2CN(Cc2ccccc2)CC3)C1=NO [8-benzyl-5-phenyl-6-7-8-9-tetrahydro-1H-pyrrolo-[3,2-h]-isoquinoline-2,3-dione-3-oxim] |
| 170 °C (dec.) | O=C1Nc2c(cc(-c3ccccc3)c3c2CN(CC2CC2)CC3)C1=NO [8-cyclopropylmethyl-5-phenyl-6,7,8,9-tetrahydro-1H-pyrrolo-[3,2-h]-isoquinoline-2,3-dione-3-oxime] |
